Experimental data published in patent US20250092065A1, “2-(INDAZOL-5-YL)-6-(PIPERIDIN-4-YL)-1,7-NAPHTHYRIDINE DERIVATIVES AND RELATED COMPOUNDS AS MODULATORS FOR SPLICING NUCLEIC ACIDS AND FOR THE TREATMENT OF PROLIFERATIVE DISEASES” (REMIX THERAPEUTICS INC., priority 2022, published 2025).
Read-outs that look alike come from different tables or passages of the source.

Tests used:
[1] = tested on: HTT mRNA; assay: RT-qPCR splicing assay, HTT mRNA canonical (CJ) and alternative (AJ) junction; type: cell-based, human; settings: Homo sapiens; for AC50: HTT alternative junction mRNA, read-out: HTT AJ (increase in AJ mRNA, AC50)
How it was run: (§1)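 A673 or K562 cells treated 24 h at 37 °C with 11-point 3-fold dilutions (top final 10 uM, DMSO ≤0.25%). Lysates analysed by one-step RT-qPCR for canonical (CJ) and alternative-exon (AJ) junctions, normalized to GAPDH, GUSB or PPIA. ΔΔCt vs DMSO, RQ = 2^(−ΔΔCt), expressed as percentage response.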

[2] = tested on: MYB mRNA; assay: RT-qPCR splicing assay, MYB mRNA canonical (CJ) and alternative (AJ) junction; type: cell-based, human; settings: Homo sapiens; for AC50: MYB alternative junction mRNA, read-out: MYB AJ (increase in AJ mRNA, AC50)
How it was run: as §1

[3] = tested on: Target C; assay: RT-qPCR canonical junction panel assay, Target C mRNA; type: cell-based; settings: Table 4, read-out: Target C IC50 (decrease in CJ mRNA levels)
How it was run: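 A673 or K562 cells treated with compound; CJ mRNA quantified by junction-spanning RT-qPCR probe after cDNA synthesis, normalised to GAPDH, GUSB or PPIA and DMSO (2^−ΔΔCt), scaled to set ΔCt assay window; IC50 from 4-parameter fit of CJ decrease.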

[4] = HTT canonical junction mRNA, RT-qPCR, read-out: HTT CJ (decrease in CJ mRNA levels, IC50)
[5] = canonical junction qPCR panel, Table 4, read-out: HTT IC50 (decrease in CJ mRNA levels)
[6] = MYB canonical junction mRNA, RT-qPCR, read-out: MYB CJ (decrease in CJ mRNA levels, IC50)
[7] = canonical junction qPCR panel, Table 4, read-out: MYB IC50 (decrease in CJ mRNA levels)

SMILES	IC50 [1, 4] [nM]	IC50 [1, 5] [nM]	IC50 [2, 6] [nM]	IC50 [2, 7] [nM]	IC50 [3] [nM]	AC50 ([1]; RT-qPCR) [nM]	AC50 ([2]; RT-qPCR) [nM]
CC(=O)c1nc(-c2cc3cn(C)nc3c(F)c2O)nc2ccc(N3CCNCC3)cc12 [Compound 513, 1-(2-(7-fluoro-6-hydroxy-2-methyl-2H-indazol-5-yl)-6-(piperazin-1-yl)quinazolin-4-yl)ethan-1-one 2,2,2-trifluoroacetate]	1000 to 10000	1000 to 10000	< 100	< 100	1000 to 10000	1000 to 10000	< 100
Cn1cc2cc(-c3nc(C4CC4)c4cc(N5CCNCC5)ccc4n3)c(O)c(F)c2n1 [Compound 518, 5-[4-cyclopropyl-6-(piperazin-1-yl)quinazolin-2-yl]-7-fluoro-2-methylindazol-6-ol; trifluoroacetic acid]	1000 to 10000	1000 to 10000	< 100	< 100	> 10000	1000 to 10000	100 to 1000
Cc1c(O)c(-c2nc(-c3cncs3)c3cc(N4CCNCC4)ccc3n2)cc2cn(C)nc12 [Compound 519, 2,7-dimethyl-5-[6-(piperazin-1-yl)-4-(1,3-thiazol-5-yl)quinazolin-2-yl]indazol-6-ol]	> 10000	> 10000	100 to 1000	100 to 1000	> 10000	> 10000	100 to 1000
Cc1c(O)c(-c2nc(-c3nnc[nH]3)c3cc(N4CCNCC4)ccc3n2)cc2cn(C)nc12 [Compound 522, 2,7-dimethyl-5-[6-(piperazin-1-yl)-4-(4H-1,2,4-triazol-3-yl)quinazolin-2-yl]indazol-6-ol; bis(trifluoroacetic acid)]	1000 to 10000	1000 to 10000	1000 to 10000	1000 to 10000	> 10000	> 10000	1000 to 10000
Cc1c(O)c(-c2nc(C(N)=O)c3cc(N4CCNCC4)ccc3n2)cc2cn(C)nc12 [Compound 523, 2-(6-hydroxy-2,7-dimethylindazol-5-yl)-6-(piperazin-1-yl) quinazoline-4-carboxamide]	100 to 1000	100 to 1000	< 100	< 100	1000 to 10000	100 to 1000	< 100
Cc1c(O)c(-c2nc(C(=O)O)c3cc(N4CCNCC4)ccc3n2)cc2cn(C)nc12 [Compound 524, 2-(6-hydroxy-2,7-dimethylindazol-5-yl)-6-(piperazin-1-yl) quinazoline-4-carboxylic acid]	> 10000	> 10000	> 10000	> 10000	> 10000	> 10000	> 10000
Cc1c(O)c(-c2ncc3cc(N4C[C@@H](C)N[C@@H](C)C4)ccc3n2)cc2cn(C)nc12 [Compound 525, 5-{6-[(3R,5S)-3,5-dimethylpiperazin-1-yl]quinazolin-2-yl}-2,7-dimethylindazol-6-ol]	100 to 1000	100 to 1000	< 100	< 100	1000 to 10000	100 to 1000	< 100
Cc1c(O)c(-c2ncc3nc(N4C[C@@H](C)N[C@@H](C)C4)ccc3n2)cc2cn(C)nc12 [Compound 526, 5-{6-[(3R,5S)-3,5-dimethylpiperazin-1-yl]pyrido[3,2-d]pyrimidin-2-yl}-2,7-dimethylindazol-6-ol]	100 to 1000	100 to 1000	< 100	< 100	1000 to 10000	1000 to 10000	100 to 1000
CNC(=O)c1nc(-c2cc3cn(C)nc3c(F)c2O)nc2ccc(N3CCC(N(C)C)CC3)cc12 [Compound 528, 6-[4-(dimethylamino)piperidin-1-yl]-2-(7-fluoro-6-hydroxy-2-methylindazol-5-yl)-N-methylquinazoline-4-carboxamide]	100 to 1000	100 to 1000	< 100	< 100	1000 to 10000	1000 to 10000	< 100
CNC(=O)c1nc(-c2cc3cn(C)nc3c(F)c2O)nc2ccc(N3CCN[C@@H](C)C3)cc12 [Compound 529, 2-(7-fluoro-6-hydroxy-2-methylindazol-5-yl)-N-methyl-6-[(3S)-3-methylpiperazin-1-yl]quinazoline-4-carboxamide]	100 to 1000	100 to 1000	< 100	< 100	1000 to 10000	100 to 1000	< 100

Now from value to compound, other results behind:

IC50 [1, 4] [nM]	IC50 [1, 5] [nM]	IC50 [2, 6] [nM]	IC50 [2, 7] [nM]	IC50 [3] [nM]	SMILES	AC50 ([1]; RT-qPCR) [nM]	AC50 ([2]; RT-qPCR) [nM]
100 to 1000	100 to 1000	< 100	< 100	1000 to 10000	CNC(=O)c1nc(-c2cc3cn(C)nc3c(C)c2O)nc2ccc(N3C[C@@H](C)N[C@@H](C)C3)cc12 [Compound 511, 6-[(3R,5S)-3,5-dimethylpiperazin-1-yl]-2-(6-hydroxy-2,7-dimethylindazol-5-yl)-N-methylquinazoline-4-carboxamide]	100 to 1000	< 100
100 to 1000	100 to 1000	< 100	< 100	1000 to 10000	Cn1cc2cc(-c3nc(C#N)c4cc(N5CCNCC5)ccc4n3)c(O)c(F)c2n1 [Compound 514, 2-(7-fluoro-6-hydroxy-2-methylindazol-5-yl)-6-(piperazin-1-yl) quinazoline-4-carbonitrile; trifluoroacetic acid]	1000 to 10000	< 100
< 100	< 100	< 100	< 100	100 to 1000	Cc1c(O)c(-c2ccc3cc(N4CCNCC4)cc(F)c3n2)cc2cn(C)nc12 [Compound 515, 5-[8-fluoro-6-(piperazin-1-yl)quinolin-2-yl]-2,7-dimethylindazol-6-ol]	< 100	< 100
100 to 1000	100 to 1000	< 100	< 100	100 to 1000	Cn1cc2cc(-c3ccc4cc(N5CCNCC5)cc(F)c4n3)cc(F)c2n1 [Compound 516, 8-fluoro-2-(7-fluoro-2-methylindazol-5-yl)-6-(piperazin-1-yl)quinoline]	100 to 1000	100 to 1000
100 to 1000	100 to 1000	< 100	< 100	100 to 1000	Cc1cn2cc(-c3ccc4cc(N5CCNCC5)cc(F)c4n3)cc(F)c2n1 [Compound 517, 8-fluoro-2-{8-fluoro-2-methylimidazo[1,2-a]pyridin-6-yl}-6-(piperazin-1-yl)quinoline]	100 to 1000	< 100
100 to 1000	100 to 1000	100 to 1000	100 to 1000	1000 to 10000	Cc1c(O)c(-c2ncc3cc(N4CCNCC4)ccc3n2)cc2cn(C)nc12 [Compound 520, 2,7-dimethyl-5-[6-(piperazin-1-yl)quinazolin-2-yl]indazol-6-ol]	100 to 1000	< 100
< 100	< 100	< 100	< 100	100 to 1000	CNC(=O)c1nc(-c2cc3cn(C)nc3c(F)c2O)nc2ccc(N3C[C@@H](C)N[C@@H](C)C3)cc12 [Compound 527, 6-[(3R,5S)-3,5-dimethylpiperazin-1-yl]-2-(7-fluoro-6-hydroxy-2-methylindazol-5-yl)-N-methylquinazoline-4-carboxamide]	100 to 1000	< 100
